PubChem BioAssay AID1963874 (Molecular Pharmacology Branch, DTP, NCI, 2024)

System: 253994-281-T-J1-PDC KRAS-mutant spheroids with HUVEC/MSC, viability
Experiment: Anticancer human tumor 253994-281-T-J1-PDC patient-derived colorectal carcinoma cell line growth inhibition [KRAS2]
Details: for IC50: curve of first compound; for viability, T/C: stronger effect = lower value
In short: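 KRAS-mutant tumor cells were grown as spheroids with HUVEC endothelial cells and human MSCs as stroma. Targeted agents were tested alone and with KRAS pathway inhibitors. Doses started at or near clinical Cmax, or 10 microM, descending half-log.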

[1] = second compound 0.0316 µM, first compound 0.000316 µM
[2] = second compound 0.0316 µM, first compound 0.001 µM
[3] = second compound 0.0316 µM, first compound 0.00316 µM
[4] = second compound 0.0316 µM, first compound 0.01 µM
[5] = second compound 0.0316 µM, first compound 0.0316 µM
[6] = second compound 0.1 µM, first compound 0.000316 µM
[7] = second compound 0.1 µM, first compound 0.001 µM
[8] = second compound 0.1 µM, first compound 0.00316 µM
[9] = second compound 0.1 µM, first compound 0.01 µM
[10] = second compound 0.1 µM, first compound 0.0316 µM
[11] = second compound 0.316 µM, first compound 0.000316 µM
[12] = second compound 0.316 µM, first compound 0.001 µM
[13] = second compound 0.316 µM, first compound 0.00316 µM
[14] = second compound 0.316 µM, first compound 0.01 µM
[15] = second compound 0.316 µM, first compound 0.0316 µM
[16] = second compound 1 µM, first compound 0.000316 µM
[17] = second compound 1 µM, first compound 0.001 µM
[18] = second compound 1 µM, first compound 0.00316 µM
[19] = second compound 1 µM, first compound 0.01 µM
[20] = second compound 1 µM, first compound 0.0316 µM
[21] = second compound 3.16 µM, first compound 0.000316 µM
[22] = second compound 3.16 µM, first compound 0.001 µM
[23] = second compound 3.16 µM, first compound 0.00316 µM
[24] = second compound 3.16 µM, first compound 0.01 µM
[25] = second compound 3.16 µM, first compound 0.0316 µM
[26] = second compound 0.0316 µM, first compound 0.1 µM
[27] = second compound 0.1 µM, first compound 0.1 µM
[28] = second compound 0.316 µM, first compound 0.1 µM
[29] = second compound 1 µM, first compound 0.1 µM
[30] = second compound 3.16 µM, first compound 0.1 µM
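Note: spheroids exposed to agents for seven days before readout.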
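Throughout, for viability, T/C: percent of DMSO vehicle control viability.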

CC(=O)Nc1cccc(-n2c(=O)n(C3CC3)c(=O)c3c(Nc4ccc(I)cc4F)n(C)c(=O)c(C)c32)c1 + C=CC(=O)N1CCN(c2nc(OCC3CCCN3C)nc3c2CCN(c2cccc4cccc(C)c24)C3)CC1CC#N
IC50 (second compound 0.0316 µM): 1.57 nM
IC50 (second compound 0.1 µM): 0.98 nM
IC50 (second compound 0.316 µM): 0.66 nM
IC50 (second compound 1 µM): 0.616 nM
IC50 (second compound 3.16 µM): < 0.1 nM
viability, T/C (second compound 0.0316 µM, first compound 0.0001 µM): 86.7%
viability, T/C [1]: 84.6%
viability, T/C [2]: 66%
viability, T/C [3]: 24.7%
viability, T/C [4]: 12%
viability, T/C [5]: 6.91%
viability, T/C (second compound 0.1 µM, first compound 0.0001 µM): 72.5%
viability, T/C [6]: 76.9%
viability, T/C [7]: 47%
viability, T/C [8]: 22.2%
viability, T/C [9]: 14.6%
viability, T/C [10]: 6.68%
viability, T/C (second compound 0.316 µM, first compound 0.0001 µM): 74.9%
viability, T/C [11]: 64.7%
viability, T/C [12]: 41.4%
viability, T/C [13]: 20.9%
viability, T/C [14]: 9.84%
viability, T/C [15]: 4.12%
viability, T/C (second compound 1 µM, first compound 0.0001 µM): 78.9%
viability, T/C [16]: 68%
viability, T/C [17]: 34.6%
viability, T/C [18]: 23.4%
viability, T/C [19]: 8.81%
viability, T/C [20]: 4.05%
viability, T/C (second compound 3.16 µM, first compound 0.0001 µM): 23.4%
viability, T/C [21]: 11.8%
viability, T/C [22]: 31.7%
viability, T/C [23]: 3.64%
viability, T/C [24]: 0.37%
viability, T/C [25]: 1.21%

CC(C)n1nc(-c2ccc3oc(N)nc3c2)c2c(N)ncnc21 + C=CC(=O)N1CCN(c2nc(OCC3CCCN3C)nc3c2CCN(c2cccc4cccc(C)c24)C3)CC1CC#N
IC50 (second compound 0.0316 µM): > 100 nM
IC50 (second compound 0.1 µM): > 100 nM
IC50 (second compound 0.316 µM): > 100 nM
IC50 (second compound 1 µM): > 100 nM
IC50 (second compound 3.16 µM): 0.686 nM
viability, T/C [1]: 97.5%
viability, T/C [2]: 90.1%
viability, T/C [3]: 80.2%
viability, T/C [4]: 82.7%
viability, T/C [5]: 84%
viability, T/C [26]: 54.7%
viability, T/C [6]: 95.6%
viability, T/C [7]: 88.8%
viability, T/C [8]: 89.1%
viability, T/C [9]: 86.8%
viability, T/C [10]: 85.8%
viability, T/C [27]: 58.4%
viability, T/C [11]: 95.4%
viability, T/C [12]: 96.7%
viability, T/C [13]: 85.2%
viability, T/C [14]: 81.6%
viability, T/C [15]: 68.7%
viability, T/C [28]: 55%
viability, T/C [16]: 106%
viability, T/C [17]: 89.9%
viability, T/C [18]: 79.1%
viability, T/C [19]: 77.4%
viability, T/C [20]: 68.5%
viability, T/C [29]: 54%
viability, T/C [21]: 73.4%
viability, T/C [22]: 25.1%
viability, T/C [23]: 56.7%
viability, T/C [24]: 17%
viability, T/C [25]: 62.4%
viability, T/C [30]: 31.6%

CC1(C)CCC(CN2CCN(c3ccc(C(=O)NS(=O)(=O)c4ccc(NCC5CCOCC5)c([N+](=O)[O-])c4)c(Oc4cnc5[nH]ccc5c4)c3)CC2)=C(c2ccc(Cl)cc2)C1 + C=CC(=O)N1CCN(c2nc(OCC3CCCN3C)nc3c2CCN(c2cccc4cccc(C)c24)C3)CC1CC#N
IC50 (second compound 0.0316 µM): > 10000 nM
IC50 (second compound 0.1 µM): 6520 nM
IC50 (second compound 0.316 µM): 8920 nM
IC50 (second compound 1 µM): 4900 nM
IC50 (second compound 3.16 µM): < 31.6 nM
viability, T/C [5]: 110%
viability, T/C [26]: 98.6%
viability, T/C (second compound 0.0316 µM, first compound 0.316 µM): 102%
viability, T/C (second compound 0.0316 µM, first compound 1 µM): 90.6%
viability, T/C (second compound 0.0316 µM, first compound 3.16 µM): 84.5%
viability, T/C (second compound 0.0316 µM, first compound 10 µM): 56.7%
viability, T/C [10]: 96.9%
viability, T/C [27]: 89%
viability, T/C (second compound 0.1 µM, first compound 0.316 µM): 87.4%
viability, T/C (second compound 0.1 µM, first compound 1 µM): 90.2%
viability, T/C (second compound 0.1 µM, first compound 3.16 µM): 64.8%
viability, T/C (second compound 0.1 µM, first compound 10 µM): 41.2%
viability, T/C [15]: 102%
viability, T/C [28]: 99.2%
viability, T/C (second compound 0.316 µM, first compound 0.316 µM): 95.6%
viability, T/C (second compound 0.316 µM, first compound 1 µM): 92.8%
viability, T/C (second compound 0.316 µM, first compound 3.16 µM): 87.1%
viability, T/C (second compound 0.316 µM, first compound 10 µM): 45.7%
viability, T/C [20]: 83.6%
viability, T/C [29]: 94.5%
viability, T/C (second compound 1 µM, first compound 0.316 µM): 91.7%
viability, T/C (second compound 1 µM, first compound 1 µM): 79.3%
viability, T/C (second compound 1 µM, first compound 3.16 µM): 64.3%
viability, T/C (second compound 1 µM, first compound 10 µM): 27.8%
viability, T/C [25]: 18.6%
viability, T/C [30]: 25.2%
viability, T/C (second compound 3.16 µM, first compound 0.316 µM): 22%
viability, T/C (second compound 3.16 µM, first compound 1 µM): 9.94%
viability, T/C (second compound 3.16 µM, first compound 3.16 µM): 0.66%
viability, T/C (second compound 3.16 µM, first compound 10 µM): 0.3%
